Source: patent US5407939A, “Fluorinated 17 β-substituted 4-aza-5 α-androstan-3-one derivatives” (Farmitalia Carlo Erba S.R.L., priority 1992, dated 1995)

Columns and labels:
5α-reductase [1] = biological target: T1, 5α-reductase (Homo sapiens, UniProt P31213); test: In vitro assay of 5α-reductase inhibition (particulate fraction from homogenates of hyperplastic human prostates, [14C] testosterone); format: biochemical; details: human prostate particulate fraction, pH 5.5, 1 μM [14C] testosterone, 30 min, 37° C.
T1 construct: particulate fraction from homogenates of hyperplastic human prostates; from tissue; host or cells: hyperplastic human prostate, particulate fraction (140,000×g pellet)
T1 sequence (P31213 1-254): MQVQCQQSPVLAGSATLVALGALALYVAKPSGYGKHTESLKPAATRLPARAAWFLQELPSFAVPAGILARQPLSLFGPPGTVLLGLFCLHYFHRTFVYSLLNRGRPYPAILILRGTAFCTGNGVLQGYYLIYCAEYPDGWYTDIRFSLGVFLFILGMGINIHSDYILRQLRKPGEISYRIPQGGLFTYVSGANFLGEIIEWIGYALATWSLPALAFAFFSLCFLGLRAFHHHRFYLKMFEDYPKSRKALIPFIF
Protocol: Inhibition of 5α-reductase was evaluated using the particulate fraction from homogenates of hyperplastic human prostates as the enzyme source. The particulate fraction was prepared centrifuging prostate homogenate at 140,000×g. The resulting pellet, washed several times, was resuspended in buffer and stored at -80° C. in aliquots containing ≈10 mg protein/mi.
The assay for 5α-reductase was done in a final volume of 0.5 ml, in 40 mM TRIS-HCl buffer pH 5.5, containing 1 mM dithiothreitol, 5 mM NADPH, 1 μM [^14 C] testosterone, an aliquot of the enzyme preparation and various of the inhibitors. After 30 min incubation at 37° C. the reaction was terminated by addition of 2 ml cold diethyl ether and the organic phase was separated, evaporated under N2 and resuspended in ethyl acetate. Testosterone metabolites in this extract were separated in TLC on silica gel F 254 plates (Merck), using chloroform, acetone and n-hexane (2:1:2) as developing solvent system.
Radioactivity on the plate was scanned and analyzed from quantitative plots printed by a TLC-analyzer (Berthold). The fractional 5α-reduction of testosterone was calculated by relating the ^14 C-radioactivity in the 5α-reduced metabolites (5α-dihydrotestosterone, 3α- and 3β-androstanediols) regions to the total radioactivity in the testosterone and 5α-reduced metabolites regions. […]

5α-reductase [2] = test: In vivo inhibition of 5α-reductase (antiandrogenic effect, ventral prostate weight in castrated, testosterone-implanted rats); details: rat, once daily for 7 consecutive days
Protocol: The standard test for the antiandrogenic effect in rats was used. Prepuberal 22-day-old male rats were castrated via scrotal incision under light ether anaesthesia. […] Control animals (testosterone controls) received the vehicle (0.5 ml/kg of 0.5% Methocel/0.4% Tween 80). One group of castrated rats was not implanted with testosterone (castrated controls).
The mean percentage of inhibition of the T-induced hypertrophic response of the prostate was calculated according to the following formula: […]

## C[C@]12C=CC(=O)N[C@@H]1CC[C@@H]1[C@@H]2CC[C@]2(C)[C@@H](C(=O)NC(c3ccccc3)C(F)(F)F)CC[C@@H]12 (stereo partly drawn) [Compound 40, N-(2,2,2-trifluorophenylethyl) 3-oxo-4-aza-5α-androst-1-ene-17β-carboxamide]
5α-reductase [1]
  IC50: 21 nM
5α-reductase [2]
  % INHIBITION OF PROSTATE WEIGHT AT 3 mg/kg/day p.o.: 51%
